Source: PubChem BioAssay (NCI)
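Where inhibition never reached the appropriate level, the endpoint shown equals the highest concentration tested. Otherwise, values were interpolated linearly from a five-concentration, 48-hour dose response in 96-well plates. TGI is the concentration that stops growth completely.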

What was measured:
Assay in all cases: growth of human tumour cells (NCI), 48 h
[1] = system: MOLT-4 leukemia
[2] = system: HT29 colon
[3] = system: SN12C renal
[4] = system: CAKI-1 renal
[5] = system: SNB-75 CNS
[6] = system: SK-MEL-2 melanoma
[7] = system: A498 renal
[8] = system: IGROV1 ovarian
[9] = system: DU-145 prostate
[10] = system: SK-MEL-5 melanoma
[11] = system: UACC-257 melanoma
[12] = system: LOX IMVI melanoma
[13] = system: HOP-62 NSCLC
[14] = system: T-47D breast
[15] = system: OVCAR-5 ovarian
[16] = system: SF-268 CNS
[17] = system: OVCAR-4 ovarian
[18] = system: HS 578T breast
[19] = system: A549 NSCLC
[20] = system: MDA-MB-435
[21] = system: SF-295 CNS
[22] = system: ACHN renal
[23] = system: UO-31 renal
[24] = system: UACC-62 melanoma
[25] = system: NCI/ADR-RES ovarian
[26] = system: SR leukemia
[27] = system: NCI-H460 lung
[28] = system: OVCAR-8 ovarian
[29] = system: COLO 205 colon
[30] = system: HCT-116 colon
[31] = system: OVCAR-3 ovarian
[32] = system: SNB-19 CNS
[33] = system: NCI-H226 lung
[34] = system: NCI-H522 lung
[35] = system: HOP-92 NSCLC
[36] = system: EKVX NSCLC
[37] = system: PC-3 prostate
[38] = system: KM12 colon
[39] = system: U251 CNS
[40] = system: SK-MEL-28 melanoma
[41] = system: RXF 393 renal
[42] = system: BT-549 breast
[43] = system: K-562 leukemia
[44] = system: TK-10 renal
[45] = system: HCT-15 colon
[46] = system: MDA-N
[47] = system: M14 melanoma
[48] = system: RPMI-8226 leukemia
[49] = system: 786-0 renal
[50] = system: MCF7 breast
[51] = system: MDA-MB-231 breast
[52] = system: NCI-H23 lung
[53] = system: MALME-3M melanoma
[54] = system: SK-OV-3 ovarian
[55] = system: HCC-2998 colon
[56] = system: SW-620 colon
[57] = system: CCRF-CEM leukemia
[58] = system: HL-60(TB) leukemia
[59] = system: SF-539 CNS

`O=[As](O)(O)c1ccc(NCc2ccccc2)cc1` gave a TGI [1] of over 100 µM, a TGI [2] of over 100 µM and a TGI [3] of over 100 µM. For the same compound, the TGI [4] was over 100 µM, the TGI [5] was over 100 µM and the TGI [6] was over 100 µM. The TGI [7] was over 100 µM, the TGI [8] was over 100 µM and the TGI [9] was over 100 µM. It also gave a TGI [10] of over 100 µM, a TGI [11] of over 100 µM and a TGI [12] of over 100 µM. For the same compound, the TGI [13] was over 100 µM, the TGI [14] was over 100 µM and the TGI [15] was over 100 µM. For the same compound, the TGI [16] was over 100 µM, the TGI [17] was over 100 µM and the TGI [18] was over 100 µM. The TGI [19] was over 100 µM, the TGI [20] was over 100 µM and the TGI [21] was over 100 µM. It also gave a TGI [22] of over 100 µM, a TGI [23] of over 100 µM and a TGI [24] of over 100 µM. It also gave a TGI [25] of over 100 µM, a TGI [26] of over 100 µM and a TGI [27] of over 100 µM. It also gave a TGI [28] of over 100 µM, a TGI [29] of over 100 µM and a TGI [30] of over 100 µM. For the same compound, the TGI [31] was over 100 µM, the TGI [32] was over 100 µM and the TGI [33] was over 100 µM. It also gave a TGI [34] of over 100 µM, a TGI [35] of over 100 µM and a TGI [36] of over 100 µM. The TGI [37] was over 100 µM, the TGI [38] was over 100 µM and the TGI [39] was over 100 µM. It also gave a TGI [40] of over 100 µM, a TGI [41] of over 100 µM and a TGI [42] of over 100 µM. It also gave a TGI [43] of over 100 µM, a TGI [44] of over 100 µM and a TGI [45] of over 100 µM. For the same compound, the TGI [46] was over 100 µM, the TGI [47] was over 100 µM and the TGI [48] was over 100 µM. It also gave a TGI [49] of over 100 µM, a TGI [50] of over 100 µM and a TGI [51] of over 100 µM. For the same compound, the TGI [52] was over 100 µM and the TGI [53] was over 100 µM.
Compound `O=C1C=CC2CCC1C2` (stereo not drawn) has a TGI [1] of over 100 µM, a TGI [2] of over 100 µM and a TGI [3] of over 100 µM. The TGI [4] was over 100 µM, the TGI [5] was over 100 µM and the TGI [6] was over 100 µM. The TGI [54] was 72.4 µM, the TGI [7] was over 100 µM and the TGI [8] was over 100 µM. It also gave a TGI [9] of over 100 µM, a TGI [10] of over 100 µM and a TGI [11] of over 100 µM. The TGI [12] was over 100 µM, the TGI [13] was over 100 µM and the TGI [14] was over 100 µM. The TGI [15] was 61.6 µM, the TGI [16] was 58.6 µM and the TGI [55] was 89.9 µM. For the same compound, the TGI [18] was 80.4 µM, the TGI [19] was over 100 µM and the TGI [20] was 61.5 µM. For the same compound, the TGI [56] was over 100 µM, the TGI [21] was over 100 µM and the TGI [22] was over 100 µM. For the same compound, the TGI [23] was over 100 µM, the TGI [24] was over 100 µM and the TGI [25] was over 100 µM. The TGI [27] was over 100 µM, the TGI [28] was over 100 µM and the TGI [29] was over 100 µM. For the same compound, the TGI [30] was over 100 µM, the TGI [31] was over 100 µM and the TGI [32] was 96.3 µM. The TGI [33] was 98.5 µM, the TGI [34] was 65.9 µM and the TGI [36] was over 100 µM. The TGI [37] was over 100 µM, the TGI [57] was over 100 µM and the TGI [38] was over 100 µM. It also gave a TGI [58] of over 100 µM, a TGI [39] of over 100 µM and a TGI [40] of 89.9 µM. For the same compound, the TGI [42] was 73.3 µM, the TGI [43] was over 100 µM and the TGI [44] was over 100 µM. It also gave a TGI [45] of over 100 µM, a TGI [46] of over 100 µM and a TGI [47] of over 100 µM. For the same compound, the TGI [48] was over 100 µM, the TGI [49] was over 100 µM and the TGI [50] was over 100 µM. The TGI [51] was over 100 µM, the TGI [52] was over 100 µM and the TGI [59] was 90.2 µM. For the same compound, the TGI [53] was over 100 µM.
